Reference: patent US20240352396A1, “PE[…]-C[…] CULTURE INCUBATOR” (Northeastern University, priority 2023, published 2024)

Key:
MCF7 cultures = conditions: MCF7 in 24-well plate, 5% O2 incubator, 5 mM sodium azide; rose from 3% O2 to the incubator setpoint; PBS-spiked cultures returned to 3% O2
Experimental: (§1) MCF7 were seeded overnight in a 24-well plate and incubated at 5% O2 for 24 hours. […] Cells were incubated with 1:1000 live/dead dye (LIVE/DEAD Fixable Kit, Thermo Fisher Scientific) for 1 hour. Flow cytometry (Attune NxT, Thermo Fisher Scientific) of live singlets was used to determine the cell viability.

MCF7 = conditions: 5 mM NaN3, 6 hours, 5% O2
Experimental: as §1

## [N-]=[N+]=[N-] [sodium azide]
MCF7 cultures
  pericellular O2 tension: 5 % O2
MCF7
  MCF7 cell viability: no significant change
